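Where inhibition never reached the appropriate level, the endpoint shown equals the highest concentration tested. Otherwise, values were interpolated linearly from a five-concentration, 48-hour dose response in 96-well plates. The concentration for 50% growth inhibition is given as GI50.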 Calls of active or inactive are those of the source. Cut-off read from the data, not from the text of the source: active = GI50 up to about 1.1 µM and inactive = higher.

The values below come from ChEMBL document CHEMBL1201862, “PubChem BioAssay data set” (2004).

Test systems include CAKI-1; COLO 205; HCT-15; HL-60; K562; KM12; LOX IMVI; MOLT-4; NCI-H522; OVCAR-4; RPMI-8226; SNB-19; TK-10; U-251; UACC-257; UO-31; SR; A498.
What all share (assay): inhibition of tumour cell growth, NCI panel, 48 h

Consider `O=C(CC1(O)C(=O)Nc2c(Cl)cccc21)c1ccccc1` (stereo not given), for which the GI50 with CAKI-1 was > 100 µM (inactive); in the assay with COLO 205 it was > 100 µM (inactive); in the assay with HCT-15 it was above 100 µM; in the assay on HL-60 it was > 100 µM (inactive); in the assay with K562, > 100 µM (inactive); with KM12, > 100 µM (inactive). In addition, the GI50 is > 100 µM (inactive) in the assay on LOX IMVI; > 100 µM (inactive) with MOLT-4; > 100 µM (inactive) in the assay with NCI-H522; 60 µM (inactive) with OVCAR-4; 49.3 µM (inactive) with RPMI-8226; > 100 µM (inactive) with SNB-19. Further, the GI50 in the assay with TK-10, in the assay with U-251, in the assay with UACC-257 and in the assay on UO-31 was > 100 µM (inactive) throughout.

As for `CCOc1ccccc1NC(=O)CC1Sc2ccccc2NC1=O` (stereo not given), the GI50 is 95.7 µM (inactive) in the assay on CAKI-1; 33.3 µM (inactive) in the assay on COLO 205; 53 µM with HCT-15; 23.9 µM (inactive) with HL-60; 38 µM (inactive) in the assay on K562; 38.1 µM (inactive) with KM12. In addition, the GI50 is > 100 µM (inactive) in the assay with LOX IMVI; 41.5 µM (inactive) with MOLT-4; 27.4 µM (inactive) in the assay on NCI-H522; 68.9 µM (inactive) in the assay on OVCAR-4; > 100 µM (inactive) with SNB-19; 21 µM (inactive) in the assay on SR. For the same compound, the GI50 with TK-10 is > 100 µM (inactive); in the assay on U-251 it was 79.4 µM (inactive); with UACC-257, > 100 µM (inactive); with UO-31 it was 61.1 µM (inactive).

For the compound `CN1C(c2ccccc2)CC(=Nc2ccccc2)CC1c1ccccc1` (stereo not given), the GI50 is 17.5 µM (inactive) in the assay with CAKI-1; 10.7 µM (inactive) in the assay with COLO 205; 16.1 µM in the assay on HCT-15; 2.61 µM (inactive) with HL-60; 13.2 µM (inactive) with K562; 4.48 µM (inactive) in the assay on LOX IMVI. In addition, the GI50 in the assay with MOLT-4 was 7.13 µM (inactive); with NCI-H522, 4.65 µM (inactive); with OVCAR-4, 10.4 µM (inactive); in the assay with RPMI-8226, 2.98 µM (inactive); in the assay on SNB-19 it was 14.3 µM (inactive); in the assay on SR it was 10.9 µM (inactive). For the same compound, the GI50 is 19.2 µM (inactive) in the assay on TK-10, 6.82 µM (inactive) with U-251, 10.4 µM (inactive) with UACC-257 and 20.7 µM (inactive) in the assay with UO-31.

In the case of `CCC1=C(C)/C(=C/c2[nH]c(CBr)c(CC)c2C)N=C1CBr`, the GI50 in the assay on CAKI-1 is 10.2 µM (inactive); in the assay with COLO 205 it was 11.3 µM (inactive); with HCT-15 it was 8.71 µM; in the assay on HL-60, 4.59 µM (inactive); in the assay on K562, 8.22 µM (inactive); in the assay on KM12 it was 11.6 µM (inactive). The GI50 with LOX IMVI is > 100 µM (inactive); with MOLT-4 it was 5.81 µM (inactive); in the assay with NCI-H522, 2.81 µM (inactive); with OVCAR-4, 13 µM (inactive); with RPMI-8226 it was 5.66 µM (inactive); in the assay with SNB-19 it was 16.4 µM (inactive). Also, the GI50 with TK-10 is 18.4 µM (inactive); with U-251 it was 11.3 µM (inactive); with UACC-257, > 10 µM (inactive); with UO-31 it was 3.52 µM (inactive).

Turning to `N#CNCC(COCc1ccccc1)c1ccccc1` (stereo not given), the GI50 in the assay on A498 is > 100 µM (inactive); in the assay on COLO 205, > 100 µM (inactive); with HCT-15, 86.1 µM; with HL-60, 61.4 µM (inactive); with K562 it was 40.3 µM (inactive); with LOX IMVI it was > 100 µM (inactive). Moreover, the GI50 in the assay on MOLT-4 was 71.1 µM (inactive); in the assay on NCI-H522, > 100 µM (inactive); in the assay on OVCAR-4 it was > 100 µM (inactive); in the assay with RPMI-8226 it was > 100 µM (inactive); with SNB-19, > 100 µM (inactive); with TK-10, > 100 µM (inactive). For the same compound, the GI50 with U-251 is > 100 µM (inactive); in the assay with UO-31, 46.1 µM (inactive).

Take `CCc1ccccc1NC(=O)C1=C(C)NC(C)=C(C(=O)Nc2ccccc2CC)C1c1ccccc1Cl`: the GI50 with A498 is 18.7 µM (inactive); in the assay with CAKI-1 it was > 100 µM (inactive); with COLO 205, > 100 µM (inactive); with HL-60, 64.6 µM (inactive); in the assay with K562, > 100 µM (inactive); in the assay on KM12 it was > 100 µM (inactive). Also, the GI50 in the assay with LOX IMVI is > 100 µM (inactive); in the assay with MOLT-4 it was 92.7 µM (inactive); in the assay on NCI-H522 it was 69.5 µM (inactive); with OVCAR-4 it was > 100 µM (inactive); in the assay on RPMI-8226 it was > 100 µM (inactive); with SNB-19, > 100 µM (inactive). Further, the GI50 with TK-10 is > 100 µM (inactive); with U-251 it was > 100 µM (inactive); with UACC-257, > 100 µM (inactive); with UO-31 it was 35.5 µM (inactive).

Take `CCOC(=O)C(Sc1ccccc1)c1c(OC)cc(=O)oc1/C=[N+](/[O-])c1ccc(N(C)C)cc1` (stereo not given): the GI50 with A498 was 52.7 µM (inactive); in the assay on CAKI-1 it was 14.9 µM (inactive); in the assay on COLO 205, 22.4 µM (inactive); in the assay with HCT-15, 15.4 µM; with K562, 6.81 µM (inactive); in the assay on KM12, 21.7 µM (inactive). Besides, the GI50 was 13.4 µM (inactive) in the assay on LOX IMVI; 13.8 µM (inactive) with MOLT-4; 26.7 µM (inactive) with OVCAR-4; 19.6 µM (inactive) in the assay with RPMI-8226; 54.8 µM (inactive) in the assay with SNB-19; 35 µM (inactive) with TK-10. Moreover, the figures for the GI50 with U-251, in the assay on UACC-257 and with UO-31 were 24.7 µM (inactive), 14.6 µM (inactive) and 18.5 µM (inactive), respectively.

As for `Cc1nc2c(=O)n(C)c(=O)nc-2n(-c2ccc(Cl)cc2)c1C`, the GI50 was > 100 µM (inactive) in the assay on A498; 43.1 µM (inactive) with CAKI-1; > 100 µM (inactive) in the assay on COLO 205; 61.9 µM with HCT-15; 45.3 µM (inactive) in the assay with HL-60; 41.7 µM (inactive) in the assay on K562. The GI50 is > 100 µM (inactive) in the assay with KM12; > 100 µM (inactive) in the assay with NCI-H522; 31 µM (inactive) in the assay on OVCAR-4; > 100 µM (inactive) with SNB-19; > 100 µM (inactive) in the assay on TK-10; > 100 µM (inactive) with U-251. In addition, the GI50 in the assay with UACC-257 was > 100 µM (inactive); with UO-31, 80.4 µM (inactive).

As to `O=C(Nc1ccccc1-c1nn(CN2CCNCC2)c(=S)n(CN2CCNCC2)c1=O)C(F)(F)F`, the GI50 in the assay with A498 is 18.2 µM (inactive); in the assay with CAKI-1, 23.9 µM (inactive); in the assay on COLO 205, 17.1 µM (inactive); in the assay on HCT-15, 15.9 µM; with HL-60, 16.4 µM (inactive); with K562, 21.9 µM (inactive). Moreover, the GI50 in the assay on KM12 was 19.7 µM (inactive); in the assay with LOX IMVI, 18.8 µM (inactive); in the assay with MOLT-4, 23 µM (inactive); in the assay with OVCAR-4 it was 19.5 µM (inactive); with SNB-19 it was 21.6 µM (inactive); in the assay with TK-10, 27.5 µM (inactive). The figures for the GI50 with U-251, in the assay with UACC-257 and in the assay with UO-31 were 16.9 µM (inactive), 17.2 µM (inactive) and 13.6 µM (inactive), respectively.

`COc1ccc(C(N)=O)c(OC)c1OCc1ccccc1`: the GI50 was > 100 µM (inactive) in the assay with A498; > 100 µM (inactive) in the assay on COLO 205; above 100 µM with HCT-15; > 100 µM (inactive) in the assay with HL-60; > 100 µM (inactive) in the assay on K562; > 100 µM (inactive) with KM12. In addition, the GI50 is > 100 µM (inactive) in the assay with LOX IMVI; > 100 µM (inactive) in the assay on MOLT-4; 12.4 µM (inactive) in the assay with NCI-H522; > 100 µM (inactive) with OVCAR-4; > 100 µM (inactive) with RPMI-8226; > 100 µM (inactive) with SNB-19. Moreover, the GI50 with TK-10, in the assay with U-251 and in the assay on UO-31 was > 100 µM (inactive) in each case.

On to `O=C(O)c1cc2c(ncc3c(=O)n(-c4ccccc4)[nH]c32)s1`, for which the GI50 is > 100 µM (inactive) in the assay with CAKI-1; > 100 µM (inactive) in the assay with COLO 205; above 100 µM in the assay on HCT-15; > 100 µM (inactive) with K562; > 100 µM (inactive) with KM12; > 100 µM (inactive) in the assay on LOX IMVI. Moreover, the GI50 in the assay on MOLT-4 is > 100 µM (inactive); in the assay on NCI-H522 it was > 100 µM (inactive); with OVCAR-4 it was > 100 µM (inactive); with RPMI-8226, > 100 µM (inactive); with SNB-19 it was > 10 µM (inactive); in the assay with SR, > 100 µM (inactive). Further, the GI50 with TK-10, in the assay on U-251 and with UO-31 was > 100 µM (inactive) each time.

On to `C[Si](C)(C)[C@@]1([Se]c2ccccc2)CC[C@@H]1C(=O)c1ccccc1`, for which the GI50 in the assay with A498 is > 100 µM (inactive); with CAKI-1, 72.1 µM (inactive); with COLO 205, > 100 µM (inactive); in the assay with HCT-15 it was 45.8 µM; in the assay with K562, 34.5 µM (inactive); in the assay with KM12, 44.9 µM (inactive). Further, the GI50 is 35.9 µM (inactive) in the assay with LOX IMVI; 21.3 µM (inactive) in the assay on MOLT-4; 23.7 µM (inactive) in the assay on NCI-H522; 67.9 µM (inactive) in the assay on OVCAR-4; 20.1 µM (inactive) in the assay with RPMI-8226; 35.8 µM (inactive) with SNB-19. Moreover, the GI50 in the assay with TK-10 was > 100 µM (inactive); in the assay on U-251 it was 83.8 µM (inactive); in the assay with UACC-257, 40.6 µM (inactive); with UO-31, 32.3 µM (inactive).

As to `COc1cccc(-n2c3nc(=O)n(C)c(=O)c-3nc3ccccc32)c1`, the GI50 with A498 is 34.5 µM (inactive); in the assay on CAKI-1, 16.2 µM (inactive); with COLO 205 it was 3.5 µM (inactive); in the assay on HCT-15 it was 13.4 µM; with HL-60, 6.01 µM (inactive); with K562, 24.2 µM (inactive). For the same compound, the GI50 was 27.1 µM (inactive) in the assay on KM12; 16.3 µM (inactive) in the assay with MOLT-4; 29.3 µM (inactive) in the assay on NCI-H522; 12.3 µM (inactive) in the assay with OVCAR-4; 12.5 µM (inactive) with RPMI-8226; 22 µM (inactive) with SNB-19. Also, the GI50 in the assay with TK-10 was 45.6 µM (inactive); with U-251, 14.4 µM (inactive); in the assay with UACC-257, 14.9 µM (inactive); in the assay with UO-31, 49.8 µM (inactive).
